We go through 53 molecules from article PMC3199943, “Screening the MayBridge Rule of 3 Fragment Library for Compounds That Interact with the Trypanosoma brucei myo-Inositol-3-Phosphate Synthase and/or Show Trypanocidal Activity” (Molecular Biology International, 2011).

Assay [1] concerns A549 cells. Description: Cytotoxicity against A549 cells, Alamar Blue. The settings on record: Supplementary Table 1, compound 0.5 mM, percentage of controls (n=1); for viability at 500 µM: Homo sapiens, A549, 65 h. The format is cell-based. On the procedure: (§1) Cytotoxic effects against HeLa and A549 cells were determined in a similar manner. Briefly, the cells were cultured in DMEM supplemented with 10% FCS and 2 mM L-Glutamine. Cells were plated at initial cell concentration of 2 × 10^4 cells/well and incubated with the compounds for ~65 hours prior to addition of Alamar Blue solution for a further 5 hours.
For orientation: Resazurin is reduced to fluorescent resorufin, in cell work by metabolically active cells.

Assay [2] relates to HeLa cells. Briefly: cells. Conditions: for viability at 500 µM / CC50: Homo sapiens, HeLa; for viability at 500 µM: 65 h, read-out: HeLa Cells Alamar Blue; for HeLa Cells Alamar Blue: Supplementary Table 1, compound 0.5 mM, percentage of controls, mean ± SD (n=3) or SE (n=2); for CC50: read-out: HeLa ED50. On the procedure: as §1

Molecules are shown by their SMILES. Where a name gives a salt, the structure may show the parent alone.

In the case of `OCc1ccc(-n2ccnc2)cc1` [compound 386, [4‐(1H‐imidazol‐1‐yl)phenyl]methanol], the viability at 500 µM was found to be 101% in assay [1] and 103 ± 15.3% in assay [2].

In the case of `O=C(O)C1COc2ccccc2C1` (stereo not shown) [compound 431, 3‐chromanecarboxylic acid], the viability at 500 µM was determined as 95.8% in assay [1] and 102 ± 5.9% in assay [2].

With `Cn1c(=S)oc2ccccc21` [compound 310, 3‐methyl‐1,3‐benzoxazole‐2(3H)‐thione], the viability at 500 µM in assay [1] was 104%; in assay [2], 103 ± 14.3%.

As for `COC(=O)c1ccccc1Cl` [compound 352, methyl 2‐chlorobenzoate], the viability at 500 µM in assay [1] was found to be 76.4%; in assay [2], 95.8 ± 19%.

As for `O=C(O)c1sccc1Cl` [compound 290, 3‐chlorothiophene‐2‐carboxylic acid], the viability at 500 µM in assay [1] is 117%; in assay [2] it was 86.9 ± 14.3%.

For the molecule `COc1ccc(Cl)cc1N` [compound 246, 5‐chloro‐2‐methoxyaniline], the viability at 500 µM in assay [1] turned out to be 113%; in assay [2], 113 ± 16.7%.

For the molecule `Cc1nc(-c2ccccc2)ncc1CO` [compound 623, (4‐methyl‐2‐phenyl‐5‐pyrimidinyl)methanol], in assay [1], the “A549 Cells Alamar Blue” value is 85.4 percentage of controls. Moreover, the “HeLa Cells Alamar Blue” value in assay [2] was 66.5 ± 11.6 percentage of controls.

Turning to `CC(=O)c1ccc(F)c(Cl)c1` [compound 367, 1‐(3‐chloro‐4‐fluorophenyl)ethan‐1‐one], the viability at 500 µM came out at 58.8% in assay [1] and 98.7 ± 6.5% in assay [2].

Turning to `Cc1ccc(C(=O)O)cc1Cl` [compound 351, 3‐chloro‐4‐methylbenzoic acid], the viability at 500 µM in assay [1] was 112%; in assay [2] it was 88.2 ± 17.9%.

For the molecule `Cn1nc(CO)cc1-c1cccs1` [compound 586, (1‐methyl‐5‐thien‐2‐yl‐1H‐pyrazol‐3‐yl)methanol], in assay [1], the “A549 Cells Alamar Blue” value was 63.4 percentage of controls. In assay [2], the “HeLa Cells Alamar Blue” value is recorded as 82 ± 15.2 percentage of controls.

Consider `CNCc1ccc(-c2nccs2)cc1` [compound 654, N‐methyl‐4‐(1,3‐thiazol‐2‐yl)benzylamine], for which the viability at 500 µM worked out at 114% in assay [1] and 66.2 ± 16.9% in assay [2].

`Cn1ccc2ccc(C(=O)O)cc21` [compound 398, 1‐methyl‐1H‐indole‐6‐carboxylic acid]: the viability at 500 µM in assay [1] worked out at 101%; in assay [2] it was 109 ± 10.3%.

With `C#Cc1ccc(OCCCC)cc1` [compound 388, 1‐butoxy‐4‐eth‐1‐ynylbenzene], the viability at 500 µM was found to be 114% in assay [1] and 107 ± 8% in assay [2].

With `OCc1ccccc1C(F)(F)F` [compound 407, [2‐(trifluoromethyl)phenyl]methanol], the viability at 500 µM in assay [1] came out at 90.2%; in assay [2], 104 ± 13.9%.

For `O=C(O)Cc1ccc(F)cc1` [compound 219, 2‐(4‐fluorophenyl)acetic acid], the viability at 500 µM in assay [1] worked out at 98.4%; in assay [2], 94.3 ± 13.4%.

In the case of `Nc1ccc(C(F)(F)F)cn1` [compound 283, 5‐(trifluoromethyl)pyridin‐2‐amine], the viability at 500 µM came to 63.6% in assay [1] and 92.7 ± 5.3% in assay [2].

As for `OCC1CCNCC1` [compound 40, 4‐piperidylmethanol], the viability at 500 µM in assay [1] was 104%; in assay [2], 84.3 ± 9%.

Turning to `O=C(O)c1ccc(-n2cccc2)cc1` [compound 512, 4‐(1H‐pyrrol‐1‐yl)benzoic acid], the viability at 500 µM turned out to be 63.2% in assay [1] and 97.5 ± 13.1% in assay [2].

Consider `NC1CCN(Cc2ccccc2)CC1` [compound 548, 1‐benzylpiperidin‐4‐amine], for which the results for the viability at 500 µM in assay [1] and in assay [2] were 89.3% and 39.5 ± 10%, respectively.

Take `CC(=O)c1nccs1` [compound 79, 1‐(1,3‐thiazol‐2‐yl)ethan‐1‐one]: the viability at 500 µM in assay [1] was 94.5%; in assay [2], 103 ± 16.6%.

On to `OC1CCSCC1` [compound 47, tetrahydro‐2H‐thiopyran‐4‐ol], for which the viability at 500 µM in assay [1] stood at 74.9%; in assay [2], 95 ± 10%.

`Cc1noc(N)c1C` [compound 32, 3,4‐dimethylisoxazol‐5‐amine]: the viability at 500 µM in assay [1] was 71.7%; in assay [2] it was 76.4 ± 5.7%.

For the molecule `Cn1ccc2ccc(CO)cc21` [compound 278, (1‐methyl‐1H‐indol‐6‐yl)methanol], the viability at 500 µM in assay [1] was 47.8%; in assay [2], 18.2 ± 10.4%.

Turning to `OCc1ccc(C(F)(F)F)o1` [compound 314, [5‐(trifluoromethyl)‐2‐furyl]methanol], the results for the viability at 500 µM in assay [1] and in assay [2] were 76.9% and 114 ± 8.2%, respectively.

`N#Cc1ccc(N)cc1C(F)(F)F` [compound 500, 4‐amino‐2‐(trifluoromethyl)benzonitrile]: the viability at 500 µM was 72.8% in assay [1] and 51 ± 10.6% in assay [2].

`OCc1ccc(Cn2cccn2)cc1` [compound 529, [4‐(1H‐pyrazol‐1‐ylmethyl)phenyl]methanol]: the “A549 Cells Alamar Blue” value in assay [1] is given as 94 percentage of controls. Besides, the “HeLa Cells Alamar Blue” value in assay [2] is 85 ± 5.2 percentage of controls.

`c1ccc(-c2cc[nH]n2)cc1` [compound 150, 3‐phenyl‐1H‐pyrazole]: the results for the viability at 500 µM in assay [1] and in assay [2] were 82% and 74.6 ± 17.7%, respectively.

Take `CC(C)(C)C(=O)Nc1ccncc1` [compound 439, 2,2‐dimethyl‐N‐(4‐pyridinyl)propanamide]: the figures for the viability at 500 µM in assay [1] and in assay [2] were 65% and 54.6 ± 4.5%, respectively.

Turning to `Nc1ccc(-c2cccnc2)cc1` [compound 347, 4‐pyridin‐3‐ylaniline], the figures for the viability at 500 µM in assay [1] and in assay [2] were 113% and 79.3 ± 2.8%, respectively.

For the molecule `O=C1CSC(c2cccs2)C1` (stereo not shown) [compound 482, 5‐(2‐thienyl)tetrahydrothiophen‐3‐one], the viability at 500 µM was 112% in assay [1] and 116 ± 6.7% in assay [2].

Regarding `OCc1ccc(Oc2ccccc2)cc1` [compound 622, (4‐phenoxyphenyl)methanol], the viability at 500 µM in assay [1] amounted to 70.7%; in assay [2], 78.3 ± 15.4%.

For `CC(C)(C)c1ccc(N)cc1` [compound 178, 4‐(tert‐butyl)aniline], the viability at 500 µM was 87.6% in assay [1] and 109 ± 18.8% in assay [2].

For the molecule `NCCc1cccc2c1OCC2` [compound 293, 2,3‐Dihydrobenzo[b]furan‐7‐ethylamine], the figures for the viability at 500 µM in assay [1] and in assay [2] were 19.8% and 10.8 ± 0.1%, respectively.

Consider `CNCc1ccc2ncccc2c1` [compound 366, N‐methyl‐N‐(quinolin‐6‐ylmethyl)amine], for which the viability at 500 µM came to 74.6% in assay [1] and 64.6 ± 11.4% in assay [2].

Turning to `Nc1ccc(N2CCCCC2)cc1` [compound 413, 4‐piperidinoaniline], the viability at 500 µM in assay [1] came out at 53.2%; in assay [2], 11.6 ± 5.1%.

Turning to `ON=C1CN2CCC1CC2` [compound 416, quinuclidin‐3‐one oxime hydrochloride], the viability at 500 µM in assay [1] stood at 109%; in assay [2] it was 107 ± 9.6%.

For `Nc1ccccc1O` [269e, 2-amino-phenol], the CC50 in assay [2] was determined as 68.2 ± 3.2 µM.

Turning to `OCc1ccc(-c2ccccc2)nc1` [compound 492, (6‐phenyl‐3‐pyridinyl)methanol], the viability at 500 µM came out at 81.3% in assay [1] and 78.6 ± 15.6% in assay [2].

Turning to `CC(C)(C)c1cccc(N)c1` [compound 179, 3‐(tert‐butyl)aniline], the results for the viability at 500 µM in assay [1] and in assay [2] were 77.9% and 99.3 ± 14.7%, respectively.

Take `Cc1c(CO)cnn1-c1ccccc1` [compound 523, (5‐methyl‐1‐phenyl‐1H‐pyrazol‐4‐yl)methanol]: the “A549 Cells Alamar Blue” value in assay [1] is given as 57.2 percentage of controls. The “HeLa Cells Alamar Blue” value in assay [2] is 75.9 ± 13.5 percentage of controls.

On to `c1ccc(Cn2cccc2)nc1` [compound 249, 2‐(1H‐pyrrol‐1‐ylmethyl)pyridine], for which the values for the viability at 500 µM in assay [1] and in assay [2] were 83.6% and 93.1 ± 19.9%, respectively.

As to `CCOC(=O)Cc1ccc(N)cc1` [compound 446, ethyl 2‐(4‐aminophenyl)acetate], the viability at 500 µM was found to be 63.2% in assay [1] and 80.1 ± 14.8% in assay [2].

On to `OCc1ccc(-c2ccncc2)cc1` [compound 488, (4‐pyrid‐4‐ylphenyl)methanol], for which the viability at 500 µM in assay [1] is 133%; in assay [2], 65.5 ± 17.5%.

As to `Cc1ccc(C(N)=O)cc1C` [compound 177, 3,4‐dimethylbenzamide], the results for the viability at 500 µM in assay [1] and in assay [2] were 64.2% and 81.7 ± 16.8%, respectively.

As for `CCc1nc(C)c[nH]1` [compound 25, 2‐ethyl‐4‐methyl‐1H‐imidazole], the results for the viability at 500 µM in assay [1] and in assay [2] were 83.9% and 98 ± 7.8%, respectively.

As for `Cc1cc(CN)n(C)n1` [compound 73, (1,3‐dimethyl‐1H‐pyrazol‐5‐yl)methylamine], in assay [1], the “A549 Cells Alamar Blue” value was 107.6 percentage of controls. In addition, in assay [2], the “HeLa Cells Alamar Blue” value is listed as 91.3 ± 0.6 percentage of controls.

As to `OCc1ccc(Oc2ccccc2)o1` [compound 540, (5‐phenoxy‐2‐furyl)methanol], the viability at 500 µM in assay [1] worked out at 57.7%; in assay [2], 13.7 ± 6.5%.

Take `CC(=O)Nc1ccc2c(c1)CCCC2=O` [compound 644, N1‐(5‐oxo‐5,6,7,8‐tetrahydronaphthalen‐2‐yl)acetamide]: in assay [1], the “A549 Cells Alamar Blue” value is given as 93.5 percentage of controls. Moreover, in assay [2], the “HeLa Cells Alamar Blue” value was 99.2 ± 7.5 percentage of controls.

Take `Nc1ccc(Cl)c(F)c1` [269b]: the CC50 in assay [2] is 1400 ± 100 µM.

For the molecule `COC(=O)C1NCCS1` (stereo not shown) [compound 44, methyl 1,3-thiazolane-2-carboxylate hydrochloride], the viability at 500 µM in assay [1] came out at 87%.

Consider `Nc1ccccc1N` [269a, benzene-1,2-diamine], for which, in assay [2], the CC50 was found to be 32.9 ± 2.5 µM.

Turning to `Fc1cc2nc[nH]c2cc1Cl` [269d], in assay [2], the CC50 worked out at 520 ± 52 µM.

As to `Nc1ccc(Cl)cc1N` [269c], the CC50 in assay [2] was determined as 224 ± 35 µM.
